The target in assay [1] is T1, recombinant human AXL expressed in live cells (HEK, AXL-Nanoluc fusion vector) (Homo sapiens, UniProt P30530).
T1 construct: host or cells: HEK
T1 sequence (P30530 26-894): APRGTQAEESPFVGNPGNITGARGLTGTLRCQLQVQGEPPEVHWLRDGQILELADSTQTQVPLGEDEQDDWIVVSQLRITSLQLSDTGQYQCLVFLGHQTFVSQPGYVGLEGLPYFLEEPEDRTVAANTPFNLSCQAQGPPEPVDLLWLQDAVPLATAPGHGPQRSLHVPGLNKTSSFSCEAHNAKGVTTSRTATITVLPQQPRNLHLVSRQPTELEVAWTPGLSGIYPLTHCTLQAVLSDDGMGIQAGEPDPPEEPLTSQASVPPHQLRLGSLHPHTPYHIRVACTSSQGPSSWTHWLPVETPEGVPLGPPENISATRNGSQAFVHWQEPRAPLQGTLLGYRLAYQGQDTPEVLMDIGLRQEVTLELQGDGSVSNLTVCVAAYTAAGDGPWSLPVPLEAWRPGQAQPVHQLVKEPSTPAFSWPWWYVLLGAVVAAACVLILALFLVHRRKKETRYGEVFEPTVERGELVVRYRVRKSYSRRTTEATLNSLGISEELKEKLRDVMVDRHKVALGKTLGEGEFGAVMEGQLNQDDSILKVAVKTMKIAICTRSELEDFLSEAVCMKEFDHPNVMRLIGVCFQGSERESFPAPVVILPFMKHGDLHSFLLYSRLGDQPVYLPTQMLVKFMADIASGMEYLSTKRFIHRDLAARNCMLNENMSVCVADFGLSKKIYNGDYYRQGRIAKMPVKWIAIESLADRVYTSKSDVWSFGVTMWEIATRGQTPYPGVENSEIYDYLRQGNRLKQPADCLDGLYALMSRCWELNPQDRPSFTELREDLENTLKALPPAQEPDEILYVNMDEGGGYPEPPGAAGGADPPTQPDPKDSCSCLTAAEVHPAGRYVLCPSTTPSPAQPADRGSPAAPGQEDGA
Put plainly: Assay 3 AXL cellular target engagement (NanoBRET TE) assay. Type of assay: cell-based. The protocol:
Assay 3—AXL Cellular Target Engagement (TE) Assay
Compound affinities for recombinant human AXL expressed in live cells were assessed via the Promega NanoBRET TE assay technology. Human Embryonic Kidney (HEK) cells were transiently transfected with the AXL-Nanoluc fusion vector (Promega Cat NV1071) using Fugene HD reagent (Promega E2311). […] Incubations were conducted for 2 h at 37° C., after which 20 μl NanoGlo substrate/inhibitor mix (Promega N2161) was added to each well for 2-3 min. The plate was then read on a BMG Pherastar FSX using a NanoBRET filter to record donor emission at 450 nm and acceptor fluorophore emission at 610 nm. From this the BRET ratio (acceptor 610 nm/donor 450 nm) for each data point was calculated.

Assay [2] deals with T2, Ba/F3 Pro B-cell line expressing TEL-human MERTK fusion domain (Homo sapiens, UniProt Q12866).
T2 sequence (Q12866 587-858 limits assumed): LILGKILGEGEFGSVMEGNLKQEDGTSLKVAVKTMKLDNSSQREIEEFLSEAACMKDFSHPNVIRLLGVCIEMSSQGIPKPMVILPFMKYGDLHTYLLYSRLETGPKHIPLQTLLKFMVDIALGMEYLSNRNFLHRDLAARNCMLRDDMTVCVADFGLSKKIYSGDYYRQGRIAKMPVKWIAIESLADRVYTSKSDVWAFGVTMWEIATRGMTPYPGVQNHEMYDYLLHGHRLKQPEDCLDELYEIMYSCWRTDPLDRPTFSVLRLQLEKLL
Type of assay: cell-based. An outline of the steps: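 Ba/F3 cells dependent on BCR-AXL or TEL-MERTK fusion kinase (IL3-free; IL3 only for control lines) treated with compound 48 h at 37 °C, 0.25% DMSO. Viability by CellTiter-Glo luminescence; IC50 for half-maximal inhibition of survival from 4-parameter variable-slope fit.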

Setting [3] is: cell survival, 48 h, CellTiter-Glo; read-out: TEL-MERTK Ba/F3 IC50.

Read-outs that look alike come from different tables or passages of the source.

As for `CC(C)n1cc(C(=O)Nc2ccc(Oc3ccnc4cnc(C(=O)NC5CCN(C)CC5)cc34)cn2)c(=O)n(-c2ccc(F)cc2)c1=O` [Example 27.5, 4-[[6-[[3-(4-fluorophenyl)-1-isopropyl-2,4-dioxo-pyrimidine-5-carbonyl]amino]-3-pyridyl]oxy]-N-(1-methyl-4-piperidyl)-1,7-naphthyridine-6-carboxamide], the IC50 in assay [1] came out at 14 nM; in assay [2] (setting [3]), 9 nM.
In the case of `Cc1cc(NC(=O)c2cccn(-c3ccccc3)c2=O)ccc1Oc1ccnc2cnc(N3CCNCC3)cc12` [Example 30, N-[3-methyl-4-[(6-piperazin-1-yl-1,7-naphthyridin-4-yl)oxy]phenyl]-2-oxo-1-phenyl-pyridine-3-carboxamide], the IC50 in assay [1] was determined as 339 nM; in assay [2] (read-out: TEL-MERTK Ba/F3 IC50; cell survival, 48 h, CellTiter-Glo), 466 nM.
For the compound `CC(C)n1cc(C(=O)Nc2ccc(Oc3ccnc4cnc(N5CCNCC5)cc34)cc2)c(=O)n(-c2ccccn2)c1=O` [Example 12.3, 1-isopropyl-2,4-dioxo-N-[4-[(6-piperazin-1-yl-1,7-naphthyridin-4-yl)oxy]phenyl]-3-(2-pyridyl)pyrimidine-5-carboxamide], the IC50 in assay [1] is 80.8 nM; in assay [2] (setting [3]), 431 nM.
Taken in the same sequence, the figures for `CC(C)n1cc(C(=O)Nc2ccc(Oc3ccnc4cnc(N5CCNCC5)cc34)cc2)c(=O)c(-c2ccc(F)cc2)c1` [Example 13, 5-(4-Fluorophenyl)-1-isopropyl-4-oxo-N-[4-[(6-piperazin-1-yl-1,7-naphthyridin-4-yl)oxy]phenyl]pyridine-3-carboxamide] were 7.1 nM and 31 nM.
Take `O=C(Nc1ccc(Oc2ccnc3cnc(N4CCN(C5COC5)CC4)cc23)cn1)c1ccnn(-c2ccc(F)cc2)c1=O` [Example 20, 2-(4-fluorophenyl)-N-[5-[[6-[4-(oxetan-3-yl)piperazin-1-yl]-1,7-naphthyridin-4-yl]oxy]-2-pyridyl]-3-oxo-pyridazine-4-carboxamide]: the IC50 in assay [2] (setting [3]) came to 20 nM.
Consider `O=C(Nc1ccc(Oc2ccnc3cnc(N4CCNCC4)cc23)cc1)c1cccn(-c2ccc(F)cc2)c1=O` [Example 12.2, 1-(4-fluorophenyl)-2-oxo-N-[4-[(6-piperazin-1-yl-1,7-naphthyridin-4-yl)oxy]phenyl]pyridine-3-carboxamide], for which the IC50 in assay [1] stood at 28.8 nM; in assay [2] (setting [3]), 56 nM.
Taken in the same sequence, the figures for `O=C(Nc1ccc(Oc2ccnc3cnc(N4CCNCC4)cc23)cc1)c1cn(C2CC2)c(=O)n(-c2ccc(F)cc2)c1=O` [Example 36, 1-cyclopropyl-3-(4-fluorophenyl)-2,4-dioxo-N-[4-[(6-piperazin-1-yl-1,7-naphthyridin-4-yl)oxy]phenyl]pyrimidine-5-carboxamide] were 25.7 nM and 160 nM.
In the same order, the values of `CC(C)n1cc(C(=O)Nc2ccc(Oc3ccnc4cnc(C(=O)NC5CCN(C)CC5)cc34)cc2)c(=O)c(-c2ccc(F)cc2)c1` [Example 37.1, 4-[4-[[5-(4-fluorophenyl)-1-isopropyl-4-oxo-pyridine-3-carbonyl]amino]phenoxy]-N-(1-methyl-4-piperidyl)-1,7-naphthyridine-6-carboxamide] are 6.1 nM and 8 nM.
Taken in the same sequence, the figures for `Cn1cc(C(=O)Nc2ccc(Oc3ccnc4cnc(N5CCNCC5)cc34)cc2)c(=O)c(-c2ccc(F)cc2)c1` [Example 13.1, 5-(4-fluorophenyl)-1-methyl-4-oxo-N-[4-[(6-piperazin-1-yl-1,7-naphthyridin-4-yl)oxy]phenyl]pyridine-3-carboxamide] were 15.9 nM and 50 nM.
`CN1CCC(NC(=O)c2cc3c(Oc4ccc(NC(=O)c5cn(C6CC6)c(=O)n(-c6ccc(F)cc6)c5=O)cc4)ccnc3cn2)CC1` [Example 15, 4-[4-[[1-Cyclopropyl-3-(4-fluorophenyl)-2,4-dioxo-pyrimidine-5-carbonyl]amino]phenoxy]-N-(1-methyl-4-piperidyl)-1,7-naphthyridine-6-carboxamide]: the IC50 in assay [1] was found to be 33.2 nM; in assay [2] (setting [3]), 159 nM.
Taken in the same sequence, the figures for `CN1CCC(NC(=O)c2cc3c(Oc4ccc(NC(=O)c5cccn(-c6ccccc6)c5=O)cc4F)ccnc3cn2)CC1` [Example 33, 4-[2-fluoro-4-[(2-oxo-1-phenyl-pyridine-3-carbonyl)amino]phenoxy]-N-(1-methyl-4-piperidyl)-1,7-naphthyridine-6-carboxamide] were 63.8 nM and 58 nM.
In the same order, the values of `C[C@H](CO)n1cc(C(=O)Nc2ccc(Oc3ccnc4cnc(C(=O)NC5CCN(C)CC5)cc34)cc2)c(=O)n(-c2ccc(F)cc2)c1=O` [Example 14, 4-[4-[[3-(4-Fluorophenyl)-2,4-dioxo-1-[(1R)-2-hydroxy-1-methyl-ethyl]pyrimidine-5-carbonyl]amino]phenoxy]-N-(1-methyl-4-piperidyl)-1,7-naphthyridine-6-carboxamide] are 31 nM and 80 nM.
Taken in the same sequence, the figures for `CN1CCC(NC(=O)c2cc3c(Oc4ccc(NC(=O)c5cn(C)cc(-c6ccc(F)cc6)c5=O)cc4)ccnc3cn2)CC1` [Example 37, 4-[4-[[5-(4-fluorophenyl)-1-methyl-4-oxo-pyridine-3-carbonyl]amino]phenoxy]-N-(1-methyl-4-piperidyl)-1,7-naphthyridine-6-carboxamide] were 33.5 nM and 50 nM.
For `CN1CCC(NC(=O)c2cc3c(Nc4ccc(NC(=O)c5cccn(-c6ccccc6)c5=O)cc4)ccnc3cn2)CC1` [Example 3, N-(1-methyl-4-piperidyl)-4-[4-[(2-oxo-1-phenyl-pyridine-3-carbonyl)amino]anilino]-1,7-naphthyridine-6-carboxamide], the IC50 in assay [1] is 7 nM; in assay [2] (setting [3]), 314 nM.
Taken in the same sequence, the figures for `CC(C)n1cc(C(=O)Nc2ccc(Oc3ccnc4cnc(N5CCNCC5)cc34)cc2)c(=O)n(-c2ccc(F)cn2)c1=O` [Example 12.4, 3-(5-fluoro-2-pyridyl)-1-isopropyl-2,4-dioxo-N-[4-[(6-piperazin-1-yl-1,7-naphthyridin-4-yl)oxy]phenyl]pyrimidine-5-carboxamide] were 12.8 nM and 100 nM.
